Experimental data from publication PMC5432571 (Frontiers in Molecular Neuroscience, 2017).
Like-named read-outs stand apart in the source and are kept apart here.

Biological target: T1, homomeric α1 GlyR (Homo sapiens, UniProt P23415)
T1 construct: expressed in transfected cells; host or cells: CHO cells
T1 sequence (P23415 29-449 isoform P23415-2 limits assumed): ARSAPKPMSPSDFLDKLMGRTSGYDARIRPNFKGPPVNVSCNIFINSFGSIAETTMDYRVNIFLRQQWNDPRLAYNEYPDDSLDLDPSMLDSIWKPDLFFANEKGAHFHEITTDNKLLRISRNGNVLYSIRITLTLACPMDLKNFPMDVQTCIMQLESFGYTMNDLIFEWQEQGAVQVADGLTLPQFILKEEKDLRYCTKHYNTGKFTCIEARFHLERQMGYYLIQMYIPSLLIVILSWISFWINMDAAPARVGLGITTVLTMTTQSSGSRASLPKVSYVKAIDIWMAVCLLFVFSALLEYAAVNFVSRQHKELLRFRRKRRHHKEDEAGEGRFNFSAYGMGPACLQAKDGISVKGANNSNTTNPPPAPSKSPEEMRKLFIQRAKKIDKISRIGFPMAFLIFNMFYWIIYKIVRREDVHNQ
Test: Whole-cell patch-clamp of glycine-induced currents, α1 GlyR expressed in CHO cells
Type: cell-based
Conditions: for inhibition at 30 µM / inhibition at 100 µM / inhibition at 300 µM: CHO, long protocol, read-out: inhibition of α1GlyR-mediated currents; for inhibition at 30 µM: NFA 30 μM; for inhibition at 100 µM: NFA 100 μM; for inhibition at 300 µM: NFA 300 μM
Description: The experiments were carried out on cultured Chinese hamster ovary (CHO) cells obtained from the American Type Tissue Culture Collection (ATCC, Molsheim, France) that were maintained in culture conditions as previously described (Mukhtarov et al., [2013]; Maleeva et al., [2015]).
One day before transfection, cells were plated on the cover slips (12 mm in diameter) and placed inside 35-mm cell culture dishes with 2 ml of medium. Transfection was performed using the Lipofectamine 3000 protocol (Life Technology, USA). To facilitate identification of transfected cells a green fluorescent protein (GFP) was added to the transfection mixture. For expression of functional heteromeric receptors, cells were simultaneously transfected with cDNAs of α and β subunits in the ratio 1:10. Three hours after the initial exposure of cells to the cDNAs the culture medium was replaced with that containing strychnine (1 μM), which prevents spontaneous activation of GlyRs. Electrophysiological recordings were performed in the fluorescent cells 24–72 h after transfection.
Whole-cell and outside-out recordings were performed at room temperature (20–25°C) using an EPC-9 amplifier (HEKA Elektronik, Germany). Cells were continuously superfused with external solution containing (mM): NaCl 140, CaCl2 2, KCl 2.8, MgCl2 4, HEPES 20, glucose 10; pH 7.4; 320–330 mOsm. Intracellular solution used for filling recording patch pipettes contained (mM): CsCl 140, CaCl2 6, MgCl2 2, MgATP 2, NaGTP 0.4, HEPES/CsOH 10, BAPTA (tetrapotassium salt) 2; pH 7.3; 290 mOsm. Two different protocols of solutions application were used in this study. […] A “ramp protocol” implies the gradual change of Vhold alternately from −80 to +80 mV and from +80 to −80 mV during 1 s, Vhold was fixed at −80 or +80 mV at the beginning and at the end of the ramp for 500 ms (Figure 2B).
Recording pipettes were pulled from borosilicate glass capillaries (Harvard Apparatus Ltd, USA) and had resistances of 5–10 MOhm. For the rapid replacement of the solutions, the fast application system was used. Three parallel rectangular tubes (100 × 100 μm) were positioned 40–50 μm above the recorded cell. The movement of the tubes was controlled by a computer-driven fast exchange system (SF 77A Perfusion Fast-Step, Warner, USA) allowing a 10–90% solution exchange in 3–5 ms, as measured by open electrode controls (1/10 external solution/water). Cells with low input resistance (<150 MOhm) and a rapid run-down (>30% with repetitive application) were excluded from analysis.
Electrophysiological recordings were performed using PatchMaster (HEKA Electronic, Germany) software.
The fractional electrical distance from the external side of the membrane (δ) at which bound NFA blocked the current was calculated using the Woodhull equation: IC50(V)=IC50(0) exp (−δFV/RT), where IC50(V) is IC50 at the given membrane potential, IC50(0) – at 0 mV, V – membrane potential and F, R, T have their usual meanings. δ was determined from a plot of IC50 values against membrane potential.

SMILES: O=C(O)c1cccnc1Nc1cccc(C(F)(F)F)c1 [NFA, Niflumic acid]
- IC50 (+30 mV, glycine 30 μM, representative, read-out: NFA IC50 (representative IC50 curve)): 218 µM
- IC50 (+30 mV, glycine 100 μM, representative, read-out: NFA IC50 (representative IC50 curve)): 107 µM
- IC50 (+80 mV, glycine 30 μM, ramp protocol, mean ± SEM, read-out: IC50 of NFA): 197 ± 18 µM
- IC50 (+80 mV, glycine 30 μM, representative, read-out: NFA IC50 (representative IC50 curve)): 178 µM
- IC50 (+80 mV, glycine 100 μM, ramp protocol, mean ± SEM, read-out: IC50 of NFA): 90 ± 8 µM
- IC50 (+80 mV, glycine 100 μM, representative, read-out: NFA IC50 (representative IC50 curve)): 94 µM
- inhibition at 30 µM (Vhold +30 mV, glycine 30 μM): 16 ± 7%
- inhibition at 30 µM (Vhold −30 mV, glycine 30 μM): 3 ± 4%
- inhibition at 100 µM (Vhold +30 mV, glycine 30 μM): 43 ± 11%
- inhibition at 100 µM (Vhold −30 mV, glycine 30 μM): 16 ± 6%
- inhibition at 300 µM (Vhold +30 mV, glycine 30 μM): 75 ± 4%
- inhibition at 300 µM (Vhold −30 mV, glycine 30 μM): 48 ± 9%
- Hill coefficient (nH) of NFA interaction (glycine 30 μM): 1.5 ± 0.11
- decrease of IC50 at +80 mV versus −80 mV (glycine 100 μM): about 3 fold
- Hill coefficient (nH) of NFA interaction (membrane potential 30 mV, glycine 30 μM): 1.87 ± 0.02
- Hill coefficient (nH) of NFA interaction (membrane potential 50 mV, glycine 30 μM): 1.55 ± 0.08
- Hill coefficient (nH) of NFA interaction (membrane potential 80 mV, glycine 30 μM): 1.28 ± 0.07
- Hill coefficient (nH) of NFA interaction (membrane potential −50 mV, glycine 30 μM): 1.7 ± 0.08
- Hill coefficient (nH) of NFA interaction (membrane potential −70 mV, glycine 30 μM): 1.65 ± 0.08
- Hill coefficient (nH) of NFA interaction (membrane potential −80 mV, glycine 30 μM): 1.56 ± 0.07
- Hill coefficient (nH) of NFA inhibitory action (overall statement in discussion): ~1.5
- IC50 (−30 mV, glycine 30 μM, representative, read-out: NFA IC50 (representative IC50 curve)): 256 µM
- IC50 (−30 mV, glycine 100 μM, representative, read-out: NFA IC50 (representative IC50 curve)): 171 µM
- IC50 (−80 mV, glycine 30 μM, ramp protocol, mean ± SEM, read-out: IC50 of NFA): 315 ± 30 µM
- IC50 (−80 mV, glycine 30 μM, representative, read-out: NFA IC50 (representative IC50 curve)): 272 µM
- IC50 (−80 mV, glycine 100 μM, ramp protocol, mean ± SEM, read-out: IC50 of NFA): 270 ± 26 µM
- IC50 (−80 mV, glycine 100 μM, representative, read-out: NFA IC50 (representative IC50 curve)): 209 µM
